Source: patent publication US10138250B2, “Salt of pyrrolo[2,3-D]pyrimidine compound and novel polymorph of salt” (Crystal Pharmatech Co., Ltd., priority 2014, dated 2018)
“Also recorded” adds a separate entry of the source. Read-outs that look alike come from different tables or passages of the source.

Assays:
[1] = Dynamic Vapor Sorption (DVS) hygroscopicity test with XRPD before and after; assay type: physicochemical; settings: for Change after DVS: XRPD before and after DVS; for solid form change after hygroscopicity test (XRPD): XRPD before and after DVS 0-95% RH cycle
Procedure: Dynamic Vapor Sorption (DVS) was measured via a SMS (Surface Measurement Systems) DVS Intrinsic. Typical Parameters for DVS test are listed below.
Gas and flow rate: N2, 200 mL/min
RH range: 0% RH to 95% RH
About 10.0 mg of hemi-succinate Form A was analyzed by DVS. The solid form was tested by XRPD before and after DVS.
About hygroscopicity characterization description and definition of hygroscopicity (Chinese Pharmacopoeia 2010 edition appendix XIXJ Drug hygroscopic test guidelines, test at 25° C.+/−1° C., 80% Relative Humidity)
About 10 mg of mono-succinate Form I of the present invention and non-hydrate form in patent CN103201275A were analyzed by DVS. The solid was tested by XRPD before and after hygroscopicity test.
The solid was tested by XRPD before and after hygroscopicity test.

[2] = Storage stability of crystalline salt forms (XRPD, HPLC purity); assay type: physicochemical; settings: 30 days; for Solid Form after storage: XRPD
Procedure: Two samples prepared by example 9, example 11 and example 13 were stored for 30 days under 25° C./60% RH and 40° C./75% RH.

[3] = data in patent CN103201275A, cited from earlier work
[4] = Conversion of mono-succinate non-hydrate form to Form I by stirring in solvents at different temperatures; assay type: physicochemical; settings: cell continues 'Form I'
Procedure: About 10 mg of the non-hydrate form in patent CN103201275A as starting form was added in different solvents or mixed solvents (v/v), then stirred at 5-50° C. for about 48 hours. Finally, the starting form converted to Form I. Solvents and temperature used in this example is in the following in table 6.

[5] = Conversion of mono-succinate non-hydrate form to hemi-succinate Form A by stirring in solvents; assay type: physicochemical; settings: cell continues 'Form A'
Procedure: About 10 mg of the non-hydrate form in patent CN103201275A as starting form was added in different solvents or mixed solvents (v/v), then stirred at 5˜50° C. for about 48 hours.

Row | Compound | Water absorption at 25° C./95% RH ([1]; DVS) [%] | Change after DVS [1] | HPLC Purity after storage ([2]; 25° C./60% RH) [%] | Solid Form after storage ([2]; 25° C./60% RH) | HPLC Purity after storage ([2]; 40° C./75% RH) [%] | Solid Form after storage ([2]; 40° C./75% RH) | also measured
1 | CN(C)C(=O)c1cc2cnc(Nc3ccc(N4CCNCC4)cn3)nc2n1C1CCCC1.CN(C)C(=O)c1cc2cnc(Nc3ccc(N4CCNCC4)cn3)nc2n1C1CCCC1.O=C(O)CCC(=O)O [hemi-succinate Form A] | – | – | – | – | – | – | weight gain at 80% RH ([1]; DVS, 25° C., 80% RH): 3.5%; hygroscopicity class ([1]; DVS, 80% RH): slightly hygroscopic (increase in mass is less than 2 percent and equal to or greater than 0.2 percent)
2 | CN(C)C(=O)c1cc2cnc(Nc3ccc(N4CCNCC4)cn3)nc2n1C1CCCC1.O=C(O)CO [glycollate Form A] | 1.2 | did not change; also recorded: No change | 99.7 | No Change | 99.6 | No Change | –
3 | CN(C)C(=O)c1cc2cnc(Nc3ccc(N4CCNCC4)cn3)nc2n1C1CCCC1.O=C(O)/C=C\C(=O)O [maleate Form A] | 3.4 | did not change; also recorded: No change | 99.3 | No Change | 99.3 | No Change | –
4 | CN(C)C(=O)c1cc2cnc(Nc3ccc(N4CCNCC4)cn3)nc2n1C1CCCC1.O=C(O)CCCCC(=O)O [adipate Form A] | 0.7 | did not change; also recorded: No change | 99.1 | No Change | 98.9 | No Change | –
5 | CN(C)C(=O)c1cc2cnc(Nc3ccc(N4CCNCC4)cn3)nc2n1C1CCCC1.O=C(O)CCC(=O)O [mono-succinate Form I] | – | – | – | – | – | – | water adsorbed at 25° C./90% RH ([1]; DVS, 25° C./90% RH): 1.7%; water adsorbed at 25° C./95% RH ([1]; DVS, listed as Form I): 4.0%; solid form change after hygroscopicity test (XRPD) ([1]; listed as Form I): did not change
6 | CN(C)C(=O)c1cc2cnc(Nc3ccc(N4CCNCC4)cn3)nc2n1C1CCCC1.O=C(O)CCC(=O)O | 18.3 | – | – | – | – | – | water adsorbed at 25° C./95% RH ([1]; DVS): 18.3%; solid form change after hygroscopicity test (XRPD) [1]: changed; Change after DVS ([1]; listed as non-hydrate form in patent CN103201275A): changed; share of non-hydrate form converted to hydrate form ([3]; 25° C./80% RH): 0.52%; share of non-hydrate form converted to hydrate form ([3]; 25° C./90% RH): 7.35%; water adsorbed at 25° C./90% RH ([3]; 25° C./90% RH): 2.0%; Final Form ([4]; 5° C., Ethanol:n-heptane = 4:1, about 48 hours): mono-succinate; Final Form ([4]; 50° C., Acetonitrile:water = 20:1, about 48 hours): mono-succinate; Final Form ([4]; 50° C., THF:Methanol = 20:1, about 48 hours): mono-succinate; Final Form ([4]; RT, Ethanol:n-heptane = 4:1, about 48 hours): mono-succinate; Final Form ([5]; Acetone:water = 20:1, stirred at 5˜50° C. about 48 hours): hemi-succinate; Final Form ([5]; Ethanol:water = 20:1, stirred at 5˜50° C. about 48 hours): hemi-succinate; Final Form ([5]; Ethyl acetate, stirred at 5˜50° C. about 48 hours): hemi-succinate; Final Form ([5]; Tetrahydrofuran:water = 20:1, stirred at 5˜50° C. about 48 hours): hemi-succinate
